Values after ≈ are worked out from the molar mass of the structure shown. Bounds are passed on as bounds.

The experiment concerns A. fumigatus s 1008. The experiment is described as follows: In vitro MIC, NCCLS M38P broth method (RPMI 1640/MOPS pH7), Aspergillus fumigatus. In kind it is cell-based. The note with it: A. fumigatus s 1008.
As for `COc1ccc(NC(=O)NN2CCN(c3ccc(OCC(O)(Cn4cncn4)c4ccc(F)cc4F)cc3)CC2)cc1` (centres unmarked) [Compound 71, 3-{4-[4-(4-Methoxyphenylureido)piperazinyl]phenoxy}-2-(2,4-difluorophenyl)-1-(1H-1,2,4-triazol-1-yl)-propan-2-ol], the “MIC (υg/ml) (A. fumigatus s 1008)” value is more than 12.5 µg/mL.
Under `O=C(Nc1ccc(Cl)cc1)NN1CCN(c2ccc(-n3cnn(CC(O)(Cn4cncn4)c4ccc(F)cc4F)c3=O)cc2)CC1` (centres unmarked) [Compound 91, 2-[2-(2,4-Difluorophenyl)-2-hydroxy-3-(1H-1,2,4-triazol-1-yl)propyl]-4-{4-[4-(4-chlorophenyluredio)-1-piperazinyl]phenyl}-3-(2H,4H)-1,2,4-triazolone] stands more than 12.5 µg/mL.
With `O=C(Nc1ccccc1)NN1CCN(c2ccc(OCC(O)(Cn3cncn3)c3ccc(F)cc3F)cc2)CC1` (centres unmarked) [Compound 80, 3-{4-[4-(Phenylureido)-piperazinyl]phenoxy}-2-(2,4-difluorophenyl)-1-(1H-1,2,4-triazol-1-yl)-propan-2-ol], the “MIC (υg/ml) (A. fumigatus s 1008)” value is more than 12.5 µg/mL.
For the compound `C[C@@H](Oc1ccc(N2CCN(NC(=O)Nc3ccc(Cl)cc3)CC2)cc1)[C@](O)(Cn1cncn1)c1ccc(F)cc1F` [Compound 77, [1R2R/1S2S] 1-{4-[4-(4-Chlorophenylureido)-piperazinyl]-phenoxy}-2-(2,4-difluorophenyl)-1-methyl-3-(1H-1,2,4-triazolyl)-propan-2-ol], the “MIC (υg/ml) (A. fumigatus s 1008)” value was 2 µg/mL (≈ 3.34 µM).
Regarding `O=C(Nc1cccc2ccccc12)NN1CCN(c2ccc(OCC(O)(Cn3cncn3)c3ccc(F)cc3F)cc2)CC1` (centres unmarked) [Compound 69, 3-{4-[4-(1-Napthylureido)piperazinyl]phenoxy}-2-(2,4-difluorophenyl)-1-(1H-1,2,4-triazol-1-yl)-propan-2-ol], the “MIC (υg/ml) (A. fumigatus s 1008)” value is more than 12.5 µg/mL.
Take `O=C(Nc1ccc(Cl)cc1)NN1CCN(c2ccc(OCC(O)(Cn3cncn3)c3ccc(F)cc3F)cc2)CC1` (centres unmarked) [Compound 67, 3-{4-[4-(4-Chlorophenylureido)piperazinyl]phenoxy}-2-(2,4-difluorophenyl)-1-(1H-1,2,4-triazol-1-yl)-propan-2-ol]: the “MIC (υg/ml) (A. fumigatus s 1008)” value worked out at 6.25 µg/mL (≈ 10.7 µM).
Consider `CC(C)NC(=S)Nc1ccc(N(C)CC(O)(Cn2cncn2)c2ccc(F)cc2F)cc1` (centres unmarked) [Compound 82, 3-{N-[4-(Isopropylthioureido)-phenyl]-N-methyl}-2-(2,4-difluorophenyl)-1-(1H-1,2,4-triazolyl)-propan-3-amino-2-ol], for which the “MIC (υg/ml) (A. fumigatus s 1008)” value is more than 12.5 µg/mL.
Regarding `O=c1n(-c2ccc(N3CCN(NC(=S)Nc4ccc(Cl)cc4)CC3)cc2)cnn1CC(O)(Cn1cncn1)c1ccc(F)cc1F` (centres unmarked) [Compound 92, 2-[2-(2,4-Difluorophenyl)-2-hydroxy-3-(1H-1,2,4-triazol-1-yl)propyl]-4-{4-[4-(4-chlorophenylthiouredio)-1-piperazinyl]phenyl}-3-(2H,4H)-1,2,4-triazolone], the “MIC (υg/ml) (A. fumigatus s 1008)” value was more than 12.5 µg/mL.
Regarding `COC(COc1ccc(N2CCN(NC(=O)N(C)c3ccc(Cl)cc3)CC2)cc1)(Cn1cncn1)c1ccc(F)cc1F` (centres unmarked) [Compound 75, 3-{4-[4-N-(4-Chlorophenyl)-N-(methylureido)-piperazinyl]-phenoxy}-2-(2,4-difluorophenyl)-1-(1H-1,2,4-triazolyl)-2-methoxypropane], the “MIC (υg/ml) (A. fumigatus s 1008)” value was more than 12.5 µg/mL.
Under `OC(COc1ccc(N2CCN(NC(=S)Nc3ccc(Cl)cc3)CC2)cc1)(Cn1cncn1)c1ccc(F)cc1F` (centres unmarked) [Compound 66, 3-{4-[4-(4-Chlorophenylthioureido)piperazinyl]phenoxy}-2-(2,4-difluorophenyl)-1-(1H-1,2,4-triazol-1-yl)-propan-2-ol] stands more than 12.5 µg/mL; under `CN(CC(O)(Cn1cncn1)c1ccc(F)cc1F)c1ccc(NC(=O)Nc2ccc(Cl)cc2)cc1` (centres unmarked) [Compound 86, 3-{N-[4-(p-Chlorophenylureido)-phenyl]-N-methyl}-2-(2,4-difluorophenyl)-1-(1H-1,2,4-triazolyl)-propan-3-amino-2-ol], more than 12.5 µg/mL.
`OC(COc1ccc(N2CCN(NC(=S)Nc3ccc(C(F)(F)F)cc3)CC2)cc1)(Cn1cncn1)c1ccc(F)cc1F` (centres unmarked) [Compound 70, 3-{4-[4-(4-Trifluoromethylphenylthioureido)piperazinyl]phenoxy}-2-(2,4-difluorophenyl)-1-(1H-1,2,4-triazol-1-yl)-propan-2-ol]: the “MIC (υg/ml) (A. fumigatus s 1008)” value is more than 12.5 µg/mL.
On to `CC(C)NC(=S)NN1CCN(c2ccc(OCC(O)(Cn3cncn3)c3ccc(F)cc3F)cc2)CC1` (centres unmarked) [Compound 65, 3-{4-[4-(Isopropylaminothiocarbonylamino)piperazinyl]phenoxy}-2-(2,4-difluorophenyl)-1-(1H-1,2,4-triazol-1-yl)-propan-2-ol], for which the “MIC (υg/ml) (A. fumigatus s 1008)” value is more than 12.5 µg/mL.
On to `CN(CC(O)(Cn1cncn1)c1ccc(F)cc1F)c1ccc(NC(=S)Nc2ccccc2)cc1` (centres unmarked) [Compound 81, 3-{N-[4-(Phenylthioureido)-phenyl]-N-methyl}-2-(2,4-Difluorophenyl)-1-(1H-1,2,4-triazolyl)-propan-3-amino-2-ol], for which the “MIC (υg/ml) (A. fumigatus s 1008)” value is more than 12.5 µg/mL.
For the compound `Cc1ccc(NC(=S)Nc2ccc(N(C)CC(O)(Cn3cncn3)c3ccc(F)cc3F)cc2)cc1` (centres unmarked) [Compound 83, 3-{N-[4-(p-Tolylthioureido)-phenyl]-N-methyl}-2-(2,4-difluorophenyl)-1-(1H-1,2,4-triazolyl)-propan-3-amino-2-ol], the “MIC (υg/ml) (A. fumigatus s 1008)” value was more than 12.5 µg/mL.
Under `O=C(Nc1ccc(Cl)cc1Cl)NN1CCN(c2ccc(OCC(O)(Cn3cncn3)c3ccc(F)cc3F)cc2)CC1` (centres unmarked) [Compound 72, 3-{4-[4-(2,4-Dichlorophenylureido)piperazinyl]phenoxy}-2-(2,4-difluorophenyl)-1-(1H-1,2,4-triazol-1-yl)-propan-2-ol] stands more than 12.5 µg/mL.
Under `CN(CC(O)(Cn1cncn1)c1ccc(F)cc1F)c1ccc(NC(=O)Nc2ccc([N+](=O)[O-])cc2)cc1` (centres unmarked) [Compound 85, 3-{N-[4-(p-nitrophenylureido)-phenyl]-N-methyl}-2-(2,4-Difluorophenyl)-1-(1H-1,2,4-triazolyl)-propan-3-amino-2-ol] stands more than 12.5 µg/mL; under `CN(CC(O)(Cn1cncn1)c1ccc(F)cc1F)c1ccc(NC(=O)Nc2ccc(F)cc2)cc1` (centres unmarked) [Compound 84, 3-{N-[4-(p-Fluorophenylureido)-phenyl]-N-methyl}-2-(2,4-difluorophenyl)-1-(1H-1,2,4-triazolyl)-propan-3-amino-2-ol], more than 12.5 µg/mL; under `OC(COc1ccc(N2CCN(NC(=S)Nc3cccc4ccccc34)CC2)cc1)(Cn1cncn1)c1ccc(F)cc1F` (centres unmarked) [Compound 68, 3-{4-[4-(1-Napthylthioureido)piperazinyl]phenoxy}-2-(2,4-difluorophenyl)-1-(1H-1,2,4-triazol-1-yl)-propan-2-ol], more than 12.5 µg/mL.
The value for “3-{4-[4-(4-chlorophenyl-N-ethylureido)-piperazinyl]-phenoxy}-2-(2,4-difluorophenyl)-1-(1H-1,2,4-triazolyl)-propan-3-amino-2-ol [Compound 73]” was more than 12.5 µg/mL.
Regarding `CC(Oc1ccc(N2CCN(NC(=O)Nc3ccc(C(F)(F)F)cc3)CC2)cc1)C(O)(Cn1cncn1)c1ccc(F)cc1F` (centres unmarked) [Compound 79, 1-{4-[4-(4-Trifluoromethylphenylureido)piperazinyl]phenoxy}-2-(2,4-difluorophenyl)-1-methyl-3-(1H-1,2,4-triazol-1-yl)-propan-2-ol], the “MIC (υg/ml) (A. fumigatus s 1008)” value is 8 µg/mL (≈ 12.7 µM).
For the compound `CC(Oc1ccc(N2CCN(NC(=O)Nc3ccc(Cl)cc3)CC2)cc1)C(O)(Cn1cncn1)c1ccc(F)cc1F` (centres unmarked) [Compound 78, [1R2S/1S2R] 1-{4-[4-(4-Chlorophenylureido)-piperazinyl]-phenoxy}2-(2,4-difluorophenyl)-1-methyl-3-(1H-1,2,4-triazolyl)-propan-2-ol], the “MIC (υg/ml) (A. fumigatus s 1008)” value was 0.5 µg/mL (≈ 0.836 µM).
As to `CC(C)NC(=S)NN1CCN(c2ccc(-n3cnn(CC(O)(Cn4cncn4)c4ccc(F)cc4F)c3=O)cc2)CC1` (centres unmarked) [Compound 90, 2-[2-(2,4-Difluorophenyl)-2-hydroxy-3-(1H-1,2,4-triazol-1-yl)propyl]-4-{4-[4-(isopropylthiouredio)-1-piperazinyl]phenyl}-3-(2H,4H)-1,2,4-triazolone], the “MIC (υg/ml) (A. fumigatus s 1008)” value is more than 12.5 µg/mL.
Under `CN(CC(O)(Cn1cncn1)c1ccc(F)cc1F)c1ccc(NC(=O)Nc2ccc(NC(=S)Nc3ccc(Cl)cc3)cc2)cc1` (centres unmarked) [Compound 89, 3-{N-[4-((p-Chlorophenylthioureido)-phenylureido)-phenyl]-N-methyl}-2-(2,4-difluorophenyl)-1-(1H-1,2,4-triazolyl)-propan-3-amino-2-ol] stands more than 12.5 µg/mL; under `Cc1ccc(NC(=S)NN2CCN(c3ccc(OCC(O)(Cn4cncn4)c4ccc(F)cc4F)cc3)CC2)cc1` (centres unmarked) [Compound 64, 3-{4-[4-(p-Tolylthioureido)piperazinyl]phenoxy}-2-(2,4-difluorophenyl)-1-(1H-1,2,4-trizol-1-yl)-propan-2-ol], 3.12 µg/mL (≈ 5.38 µM); under `Nc1ccc(NC(=O)NN2CCN(c3ccc(OCC(O)(Cn4cncn4)c4ccc(F)cc4F)cc3)CC2)cc1` (centres unmarked) [Compound 76, 3-{4-[4-(4-Aminophenylureido)piperazinyl]phenoxy}-2-(2,4-difluorophenyl)-1-(1H-1,2,4-triazol-1-yl)-propan-2-ol], more than 12.5 µg/mL.
For the compound `CN(CC(O)(Cn1cncn1)c1ccc(F)cc1F)c1ccc(NC(=O)Nc2ccc(CC(=O)O)cc2)cc1` (centres unmarked) [Compound 87], the “MIC (υg/ml) (A. fumigatus s 1008)” value was more than 12.5 µg/mL.
Under “3-{4-[4-(4-chlorophenyl-N-ethylureido)-piperazinyl]-phenoxy}-2-(2,4-difluorophenyl)-1-(1H-1,2,4-triazolyl)-2-ethoxy-3-propylamine [Compound 74]” stands more than 12.5 µg/mL; under `COC(=O)Cc1ccc(NC(=O)Nc2ccc(N(C)CC(O)(Cn3cncn3)c3ccc(F)cc3F)cc2)cc1` (centres unmarked) [Compound 88, 3-{N-[4-((2-Methoxy-2-oxoethyl)-phenylureido)-phenyl]-N-methyl}-2-(2,4-difluorophenyl)-1-(1H-1,2,4-triazolyl)-propan-3-amino-2-ol], more than 12.5 µg/mL.

The values are drawn from patent US6670363B1, “Azole compounds as therapeutic agents for fungal infections” (Ranbaxy Laboratories Limited, priority 2000, dated 2003).
